Results: patent US8198452B2, “Polymorphic forms and process” (Merck Patent Gesellschaft MIT Beschränkter Haftung, priority 2006, dated 2012)

Assays:
Assay type in all cases: physicochemical
[1] = stability of the basic, non-salt form
[2] = chemical stability (thermal stability and light stability)
Text: The expression chemical stability includes, but is not limited to, thermal stability and light stability.

[3] = thermodynamic stability of crystalline forms; conditions: versus form A2, A3 (b74 also the amorphous form, especially at room temperature)
[4] = hygroscopicity of crystalline forms

| SMILES | stability in basic, i.e. non-salt, form [1] | chemical stability (shelf-life, thermal stability and light stability) [2] | thermodynamic stability compared with other forms [3] | hygroscopicity [4] | hygroscopicity compared with other forms ([4]; versus form A2, A3 and the amorphous form, especially at room temperature) |
| --- | --- | --- | --- | --- | --- |
| CN(C)CCNC(=O)NC[C@H]1CC[C@@H]2[C@H](O1)c1cc(C(F)(F)F)ccc1N[C@H]2c1ccccc1 [compound of formula II, 1-(2-Dimethylamino-ethyl)-3-((2R,4aS,5R,10bS)-5-phenyl-9-trifluoromethyl-3,4,4a,5,6,10b-hexahydro-2H-pyrano[3,2-c]quinolin-2-ylmethyl)-urea] | especially stable |  |  |  |  |
| CN(C)CCNC(=O)NC[C@H]1CC[C@@H]2[C@H](O1)c1cc(C(F)(F)F)ccc1N[C@H]2c1ccccc1 [Form A1, 1-(2-Dimethylamino-ethyl)-3-((2R,4aS,5R,10bS)-5-phenyl-9-trifluoromethyl-3,4,4a,5,6,10b-hexahydro-2H-pyrano[3,2-c]quinolin-2-ylmethyl)-urea] |  | better chemical stability | thermodynamically more stable than form A2 and A3 | essentially non-hygroscopic | less hygroscopic than form A2, A3 and the amorphous form |
